These are literature values, as cited in publication PMC10893631, “Receptor-based pharmacophore modeling, molecular docking, synthesis and biological evaluation of novel VEGFR-2, FGFR-1, and BRAF multi-kinase inhibitors” (BMC Chemistry, 2024).

Usually Ki stands for a dissociation constant, usually derived from enzyme kinetics or from competition with a known ligand.

Structures are written as SMILES.

The data set addresses T1, VEGFR-2 (Homo sapiens, UniProt P35968).
T1 construct: purchased BPS Biosciences 40325
On the set-up: method as in PMID 17696416. As to conditions: cited from earlier work.

T1 sequence (P35968 20-1356): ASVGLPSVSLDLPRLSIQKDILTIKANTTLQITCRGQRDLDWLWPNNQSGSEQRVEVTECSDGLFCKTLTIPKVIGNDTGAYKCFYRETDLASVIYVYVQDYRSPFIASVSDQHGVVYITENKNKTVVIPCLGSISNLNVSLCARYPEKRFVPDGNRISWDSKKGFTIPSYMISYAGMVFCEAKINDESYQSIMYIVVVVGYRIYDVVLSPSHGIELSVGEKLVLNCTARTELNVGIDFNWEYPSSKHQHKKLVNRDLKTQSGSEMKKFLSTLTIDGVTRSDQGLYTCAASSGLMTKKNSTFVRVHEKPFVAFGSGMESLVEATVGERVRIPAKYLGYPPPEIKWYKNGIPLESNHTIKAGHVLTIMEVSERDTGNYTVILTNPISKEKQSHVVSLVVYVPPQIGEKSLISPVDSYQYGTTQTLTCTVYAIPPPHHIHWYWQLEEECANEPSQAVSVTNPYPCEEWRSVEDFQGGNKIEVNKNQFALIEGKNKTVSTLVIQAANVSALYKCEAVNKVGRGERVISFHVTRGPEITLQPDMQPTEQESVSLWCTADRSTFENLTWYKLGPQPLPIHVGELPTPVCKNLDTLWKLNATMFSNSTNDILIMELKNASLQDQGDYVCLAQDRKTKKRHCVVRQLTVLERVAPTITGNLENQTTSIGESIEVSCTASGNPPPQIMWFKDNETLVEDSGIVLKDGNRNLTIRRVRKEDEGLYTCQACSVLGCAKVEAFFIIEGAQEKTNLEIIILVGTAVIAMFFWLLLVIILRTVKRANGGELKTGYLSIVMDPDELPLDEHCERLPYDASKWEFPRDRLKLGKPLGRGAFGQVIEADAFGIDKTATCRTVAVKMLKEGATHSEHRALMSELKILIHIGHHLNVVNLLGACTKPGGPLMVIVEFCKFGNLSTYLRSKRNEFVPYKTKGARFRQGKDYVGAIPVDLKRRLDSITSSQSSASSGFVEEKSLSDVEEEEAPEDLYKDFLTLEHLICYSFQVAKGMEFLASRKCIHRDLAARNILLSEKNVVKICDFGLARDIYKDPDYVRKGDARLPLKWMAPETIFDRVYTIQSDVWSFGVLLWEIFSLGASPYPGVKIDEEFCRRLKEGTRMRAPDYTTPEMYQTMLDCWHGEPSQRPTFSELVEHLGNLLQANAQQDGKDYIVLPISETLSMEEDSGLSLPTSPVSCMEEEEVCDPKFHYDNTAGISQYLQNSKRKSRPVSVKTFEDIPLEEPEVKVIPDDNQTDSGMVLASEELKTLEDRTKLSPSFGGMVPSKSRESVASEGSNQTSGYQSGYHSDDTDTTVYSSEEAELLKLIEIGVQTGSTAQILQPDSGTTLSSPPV

Regarding `CNC(=O)c1cc(Oc2ccc3[nH]c(Nc4ccc(C(F)(F)F)c(Cl)c4)nc3c2)ccn1` [II], the Ki is 8.7 nM.
